Laboratory results taken from article PMC8286836, “Identifying SARS-CoV-2 antiviral compounds by screening for small molecule inhibitors of Nsp5 main protease” (Biochemical Journal, 2021).
Where “and” joins values, the source holds several entries; their conditions need not be identical. Identical values can stand only once. Entries after “also recorded” stand apart in the source; their conditions may differ. Like-named read-outs stand apart in the source and are kept apart here. Where a SMILES comes first, the peptide text is derived from it. [ ]: non-standard residue; d: D form. The star is where a group is joined. Nle = CCCC[C@H](N)C(=O)O; Cbz = O=C(OCc1ccccc1)*; CH2F = FC*

Columns and labels:
[1] = molecular target: T1, nsp5 (Severe acute respiratory syndrome coronavirus 2, UniProt P0DTD1); experiment: biochemical; type: biochemical; conditions: for inhibition of nsp5 in FRET-based assay: drug concentrations 0 to 500 µM; for inhibition of nsp5 in presence of reducing agent: DTT or GSH; for inhibition of nsp5 in absence of reducing agent: no reducing agent
[2] = molecular target: T1, nsp5; experiment: Gel based nsp9 cleavage assay; type: biochemical; conditions: 1 µM nsp5, drug 10-500 µM
[3] = molecular target: thrombin (Homo sapiens, UniProt P00734); experiment: thrombin FRET protease assay (specificity); type: biochemical; conditions: for inhibition of thrombin activity (words): same buffer as in the HTS
Excerpt: Calpain Inhibitor I and Z-DEVD-FMK were described recently as nsp5 inhibitors in vitro [21, 25]. To test the specificity of the final five drugs we tested them against a different protease, thrombin. We used the same buffer as in the HTS, which contained a non-ionic detergent, which reduces the likelihood of unspecific inhibition via colloidal aggregation. […] Lastly, we tested whether these compounds could inhibit the other viral coronavirus protease (nsp3 PLpro), which is also a cysteine protease. The substrate and assay conditions used in this experiment as well as example inhibitor compounds of PLpro are described elsewhere (see [28]).
The peptides were analysed by LC–MS on an Agilent 1100 LC-MSD.

[4] = tested on: SARS-CoV-2; experiment: viral infectivity assay in Vero E6 cells; type: cell-based; conditions: for EC50: read-out: EC50 viral infection
[5] = tested on: mice; conditions: cited from earlier work
[6] = tested on: rhesus macaques; design: method as in PMID 29553486; conditions: trials investigating AIDS disease progression; cited from earlier work
[7] = FRET-based assay, 10 nM nsp5, 20 µM substrate, 2 mM DTT, mean ± SEM, read-out: IC50
[8] = Severe acute respiratory syndrome coronavirus 2, Vero C1008, Vero E6 cells, MOI 0.5 PFU/cell, mean ± SEM

## CCNC(=O)[C@H]1O[C@@H](n2cnc3c(N)ncnc32)[C@H](O)[C@@H]1O [5'-N-Ethulcarbomaxidoadenosine]
[1]
  inhibition of nsp5 in FRET-based assay: Did not inhibit

## O=C1O/C(=C/Br)CCC1c1cccc2ccccc12 (stereo not shown) [Bromoenol lactone]
[1]
  IC50: 3400 nM
[1]; FRET-based assay, mean ± SEM
  Hill coefficient (nH): -2.6 ± 0.15
[2]
  inhibition of nsp5 in nsp9 gel-based cleavage assay (words): inhibited nsp5
[3]; HTS buffer, thrombin FRET substrate, mean ± SEM
  Inhibition of thrombin: nH: -2.8 ± 0.8
[3]; HTS buffer, thrombin FRET substrate, mean ± SEM, read-out: Inhibition of thrombin: IC50
  IC50: 400 ± 600 nM
[3]
  inhibition of thrombin activity (words): I nhibited thrombin
[3]; listed as bromoenol lactone
  inhibition of thrombin activity (words): inhibited thrombin activity

## Cc1ccccc1N=Nc1ccc(NC(=O)c2ccnn2C)c(C)c1 [CH-223191]
[1]
  inhibition of nsp5 in FRET-based assay: Did not inhibit

## CCCC[C@@H](C=O)NC(=O)[C@H](CC(C)C)NC(=O)[C@H](CC(C)C)NC(C)=O [Calpain Inhibitor I, (2S)-2-(acetylamino)-N-[(1S)-1-({[(1S)-1-formylpentyl]amino}carbonyl)-3-methylbutyl]-4-methylpentanamide] (Ac-Leu-Leu-[Nle]-aldehyde)
[1]; [7]
  IC50: 5170 ± 170 nM
[1]; FRET-based assay
  inhibition of nsp5 in presence of reducing agent: inhibited nsp5 in the absence of reducing agent as well as the presence of either reducing agent
  inhibition of nsp5 in absence of reducing agent: inhibited nsp5 in the absence of reducing agent
[1]; FRET-based assay, Reducing agent: DTT, read-out: IC50
  IC50: 2800 ± 200 nM
[1]; FRET-based assay, Reducing agent: GSH, read-out: IC50
  IC50: 2300 ± 200 nM
[1]; FRET-based assay, Reducing agent: None, read-out: IC50
  IC50: 2400 ± 100 nM
[1]; FRET-based assay, mean ± SEM
  Hill coefficient (nH): -2.0 ± 0.1
[2]
  inhibition of nsp5 in nsp9 gel-based cleavage assay (words): inhibited nsp5
[4]; [8]
  EC50: 280 ± 10 nM
[5]
  toxic effects in mice: without obvious toxic effects

## O=c1c2ccccc2[se]n1-c1ccccc1 [Ebselen]
[1]; FRET-based assay
  inhibition of nsp5 in presence of reducing agent: only a slight reduction in nsp5 activity
  inhibition of nsp5 in absence of reducing agent: inhibited nsp5 only in the absence of a reducing agent

## Br.CCCc1cc(-c2nc(-c3ccc(C)cc3)cs2)ccn1 [Fatostatin HBr]
[1]; [7]
  IC50: 64900 nM
[1]; FRET-based assay, mean ± SEM
  Hill coefficient (nH): -0.3 ± 0.08
[1]
  inhibition of nsp5 in FRET-based assay: showed some inhibition of nsp5
[2]
  inhibition of nsp5 in nsp9 gel-based cleavage assay (words): Did not inhibit; also recorded: did not show inhibition at any of the drug concentrations

## CN1CCN(c2c(F)cc3c(=O)c(C(=O)O)cn4c3c2OCN4C)CC1 [Marbofloxacin]
[1]
  inhibition of nsp5 in FRET-based assay: Did not inhibit

## CC(C)[C@H](NC(=O)c1ccc2ccccc2n1)C(=O)N[C@@H](CC(=O)O)C(=O)COc1c(F)cccc1F [Q-VD-OPh]
[2]
  inhibition of nsp5 in nsp9 gel-based cleavage assay (words): did not inhibit nsp5 activity
[6]
  toxic side effects in rhesus macaques: no toxic side effects

## CCOc1ccc(Cc2cc([C@@H]3O[C@H](SC)[C@@H](O)[C@H](O)[C@H]3O)ccc2Cl)cc1 [Sotagliflozin (LX4211), Sotagliflozin]
[1]
  inhibition of nsp5 in FRET-based assay: Did not inhibit

## COc1cc2ncc(-c3ccccc3)nc2cc1OC [Tyrphostin AG 1296]
[1]
  inhibition of nsp5 in FRET-based assay: did not inhibit in either validation step
[2]
  inhibition of nsp5 in nsp9 gel-based cleavage assay (words): did not inhibit in either validation step

## COC(=O)CC(NC(=O)C(CC(C)C)NC(=O)C(NC(=O)C(C)NC(=O)C(CO)NC(=O)C(C)NC(=O)OCc1ccccc1)C(C)C)C(=O)CF (stereo not shown) [Z-ASAVLD-FMK] (Cbz-ASAVLD(OMe)-CH2F; configuration not given here)
[1]; [7]
  IC50: 260 ± 20 nM

## COC(=O)CC(NC(=O)C(CC(C)C)NC(=O)C(NC(=O)C(C)NC(=O)OCc1ccccc1)C(C)C)C(=O)CF (stereo not shown) [Z-AVLD-FMK] (Cbz-AVLD(OMe)-CH2F; configuration not given here)
[1]; FRET-based assay, custom FMK peptides, mean ± SEM, read-out: IC50
  IC50: < 1 nM and 0.8 nM
[4]; Severe acute respiratory syndrome coronavirus 2, Vero C1008
  EC50: 66000 ± 7280 nM
[4]; Vero E6 cells
  increase in inhibitor potency (EC50) compared with Z-VAD-FMK: 2 fold
[4]
  EC50: 66000 ± 7300 nM

## COC(=O)CCC(NC(=O)C(CC(=O)OC)NC(=O)OCc1ccccc1)C(=O)NC(C(=O)NC(CC(=O)OC)C(=O)CF)C(C)C (stereo not shown) [Z-DEVD-FMK]
[1]
  IC50: 230 ± 30 nM
[1]; FRET-based assay, mean ± SEM
  Hill coefficient (nH): -0.7 ± 0.05
[2]
  inhibition of nsp5 in nsp9 gel-based cleavage assay (words): inhibited nsp5

## CCC(C)C(NC(=O)OCc1ccccc1)C(=O)NC(CCC(=O)OC)C(=O)NC(C(=O)NC(CC(=O)OC)C(=O)CF)C(C)O (stereo not shown) [Z-IETD-FMK] (Cbz-IE(OMe)TD(OMe)-CH2F; configuration not given here)
[1]; [7]
  IC50: 230 ± 10 nM
[1]; FRET-based assay, mean ± SEM
  Hill coefficient (nH): -1.4 ± 0.08
[2]
  inhibition of nsp5 in nsp9 gel-based cleavage assay (words): inhibited nsp5

## COC(=O)CC(NC(=O)C(CC(C)C)NC(=O)C(NC(=O)C(C)NC(=O)C(CO)NC(=O)OCc1ccccc1)C(C)C)C(=O)CF (stereo not shown) [Z-SAVLD-FMK] (Cbz-SAVLD(OMe)-CH2F; configuration not given here)
[1]; [7]
  IC50: 20 ± 1 nM

## COC(=O)CC(NC(=O)C(C)NC(=O)C(NC(=O)OCc1ccccc1)C(C)C)C(=O)CF (stereo not drawn) [Z-VAD-FMK, Z-VAD(OMe)-FMK] (Cbz-Val-Ala-Asp(OMe)-CH2F; configuration not given here)
[1]
  IC50: 160 ± 10 nM
[1]; FRET-based assay, mean ± SEM
  Hill coefficient (nH): -1.5 ± 0.07
[2]
  inhibition of nsp5 in nsp9 gel-based cleavage assay (words): inhibited nsp5
[4]; [8]
  EC50: 138000 ± 19000 nM
[4]; Vero E6 cells
  concentrations at which inhibition of viral infection was displayed: greater than 100 µM

## PDK1/Akt/Flt Dual Pathway Inhibitor
[1]; [7]
  IC50: 26300 nM
[1]; FRET-based assay, mean ± SEM
  Hill coefficient (nH): -0.3 ± 0.02
[1]
  inhibition of nsp5 in FRET-based assay: showed some inhibition of nsp5
[2]
  inhibition of nsp5 in nsp9 gel-based cleavage assay (words): Did not inhibit
[2]; listed as PDK1/Akt/Flt Dual pathway
  inhibition of nsp5 in nsp9 gel-based cleavage assay (words): did not show inhibition at any of the drug concentrations

## Q-DEVD-OPh
[2]
  inhibition of nsp5 in nsp9 gel-based cleavage assay (words): only displayed inhibition at the highest concentration of drug tested

## Q-IETD-OPh
[2]
  inhibition of nsp5 in nsp9 gel-based cleavage assay (words): showed the best nsp5 inhibition
